Results taken from patent publication US6951883B2, “2H-1-benzopyran derivatives processes for their preparation and pharmaceutical compositions thereof” (Chiesi Farmaceutici S.p.A., priority 2001, dated 2005).

Legend:
[1] = system: immature female rats (E2-stimulated uterus); experiment: Immature female rat assay, antiuterotrophic activity; format: in vivo
Source text: (§1) In Vivo Studies—Immature Female Rat Assay.
Antiuterotrophic Activity
(§2) Experiments have been conducted as described in Eppenberger U et al, Am J Clin Oncol 14 (suppl. 2), S5-S14, 1991.
This concentration of E2 was the lowest producing near-maximal effect and was chosen on the basis of preliminary dose-response experiments.

[2] = system: OVX rats; experiment: Four-week OVX rat assay, bone mineral density (lumbar spine L1-4) by DEXA; format: in vivo; conditions: 4 weeks
Method: Effects in the Ovariectomized (OVX) Rat Model
(§3) The experiments have been conducted according to Kaln D N, Bone Mineral 15, 175-192, 1991 and Grese T A et al J Med Chem 40, 146-167, 1997.
(§4) The effects of the tested compounds were evaluated also in 9-11-month-old OVX rats that were dosed for 4 weeks post-surgery and compared with OVX and Sham controls.
(§5) Tissue-specific estrogen agonist effects were examined utilizing uterine weight, uterine histology, uterine eosinophil peroxidase activity (EPO), bone mineral density (BMD), and serum cholesterol levels as end points.
Effect on Bone Mineral Density (BMD) (Lumbar Spine L1-4)
Bone mineral density (BMD) was measured by DEXA (Dual Energy XRay Absorptiometry) using a Hologic QDR-1000 plus instrument equipped with dedicated software for small animal measurements. An ultrahigh-resolution mode (line spacing 0.0254 cm and resolution 0.0127 cm) was used with a collimator of 0.63 mm diameter. This technique provides an integrated measure of both cortical and trabecular bone.
In vivo DEXA measurements were carried out immediately before surgery (baseline scan) and 4 weeks after surgery. The anatomic region examined was the lumbar spine L1-4.
All animals were anesthetized before scanning with a mixture of ketamine and p-promazine. For each scan a rat was placed in a supine position with the spine parallel to the long axis of the densitometer table. The lumbar spine was scanned using the pelvic bones as landmark; analysis of this site was accomplished by dividing vertebra and intervertebral spaces with subregional high resolution software and including only target vertebra in the global region of interest.
Percent protection was calculated by the following formula: % protection=[(% chance BMDtest compound−% chance BMDOVX control)/(% chance BMDsham control−% chance BMDOVX control)]×100.

[3] = system: OVX rats; experiment: Four-week OVX rat assay, uterine effects (weight, eosinophil peroxidase, histology); conditions: in vivo
Method: as §3, §4, §5
The degree of eosinophilic peroxidase induction of the uterus may be a useful marker for estrogen-effected growth responses (Lyttle C R and DeSombre E R Proc Natl Acad Sci USA 74, 3162-3166, 1977).

[4] = molecular target: human ER-β (Homo sapiens, UniProt Q92731); experiment: Human estrogen receptor-β binding; conditions: for affinity for ER-β higher than raloxifene: compared with raloxifene
Source text: (§6) In Vitro Study—Human Estrogen Receptor-α and -β (ER-α and ER-β)

[5] = system: immature female rats (uterine weight); experiment: Immature female rat assay, uterotrophic activity; format: in vivo; conditions: for increase of uterine weight compared with vehicle treated control rats: 0.1 mg/kg/day; for uterine weight versus control rats: 0.01, 1 and 10 mg/kg/day; for uterine weights versus control rats: 0.01, 0.1, 1 and 10 mg/kg·day
Source text: as §1, §2

[6] = system: MCF-7; experiment: cells; conditions: for concentration of total growth inhibition: 72-hours incubation; for IC50: read-out: Inhibitory Concentration IC50
Method: In Vitro Study—MCF-7 Cell Proliferation
The tumor cells were obtained from American Type Culture Collection (ATCC HTB-22). The culture media used was Minimum Essential medium with 10% fetal bovine serum, and media were supplemented with 1% antibiotic-antimycotic. Aliquots of 100 μl of cell suspension (5×10^3/well) were placed in 96-well microtiter plates in an atmosphere of 5% CO2 at 37° C. After 24 hours, 100 μl of growth medium, 2 μl of test solution, mitomycin or vehicle (DMSO, final concentration 0.4%), was added respectively per well in duplicate for an additional 72-hours incubation. At the end of incubation, 20 μl of alamarBlue 75% reagent was added to each well for another 6-hour incubation before detection of cell viability by fluorescent intensity (excitation at 530 nm and emission at 590 nm).

[7] = molecular target: T1, human ER-α (Homo sapiens, UniProt P03372); experiment: Human estrogen receptor-α binding
T1 sequence (P03372 1-595): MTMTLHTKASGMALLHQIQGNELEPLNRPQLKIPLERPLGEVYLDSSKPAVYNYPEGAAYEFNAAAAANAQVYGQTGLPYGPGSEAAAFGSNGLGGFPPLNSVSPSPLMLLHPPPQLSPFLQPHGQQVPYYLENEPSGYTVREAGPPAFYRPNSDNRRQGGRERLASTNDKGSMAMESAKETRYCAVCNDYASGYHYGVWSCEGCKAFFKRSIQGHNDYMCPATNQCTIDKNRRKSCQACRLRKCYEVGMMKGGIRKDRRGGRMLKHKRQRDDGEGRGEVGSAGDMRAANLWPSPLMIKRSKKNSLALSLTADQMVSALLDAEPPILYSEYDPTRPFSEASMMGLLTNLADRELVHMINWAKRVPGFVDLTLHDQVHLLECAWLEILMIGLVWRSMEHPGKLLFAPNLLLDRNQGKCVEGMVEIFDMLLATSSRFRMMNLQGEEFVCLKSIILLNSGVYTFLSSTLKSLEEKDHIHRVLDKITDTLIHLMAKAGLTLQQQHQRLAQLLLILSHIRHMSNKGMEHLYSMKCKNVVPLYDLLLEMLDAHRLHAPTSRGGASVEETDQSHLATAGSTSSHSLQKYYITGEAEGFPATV
Source text: as §6

[8] = system: OVX rats; experiment: Four-week OVX rat assay, serum cholesterol levels; format: in vivo; conditions: for lowering of serum cholesterol levels, comparison in words: with respect to controls, compared with E2 / Compound II
Method: as §3, §4, §5
Effect on Serum Cholesterol Levels

[9] = Solubility in water; format: physicochemical; conditions: r.t.
[10] = oral, E2 0.05 mg/kg per os for 3 days

Sequence of human ER-β (Q92731 whole entry): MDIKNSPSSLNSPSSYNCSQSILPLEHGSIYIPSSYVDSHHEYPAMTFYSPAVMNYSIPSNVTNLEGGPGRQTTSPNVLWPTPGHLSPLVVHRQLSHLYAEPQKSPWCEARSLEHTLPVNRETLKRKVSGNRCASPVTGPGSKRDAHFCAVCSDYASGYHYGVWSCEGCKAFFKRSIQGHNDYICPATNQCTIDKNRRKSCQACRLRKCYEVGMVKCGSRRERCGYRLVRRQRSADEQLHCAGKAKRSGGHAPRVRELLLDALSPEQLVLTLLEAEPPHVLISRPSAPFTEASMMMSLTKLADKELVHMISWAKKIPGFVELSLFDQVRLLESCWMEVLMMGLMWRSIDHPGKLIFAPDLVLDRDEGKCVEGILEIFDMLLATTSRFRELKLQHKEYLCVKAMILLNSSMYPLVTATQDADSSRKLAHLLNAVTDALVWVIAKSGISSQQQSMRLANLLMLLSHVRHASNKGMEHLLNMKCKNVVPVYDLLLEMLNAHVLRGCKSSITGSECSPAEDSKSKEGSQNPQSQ

17α-ethynil estradiol [reference compound]
increase of uterine wet weight compared with vehicle-treated controls ([1]; 0.05 mg/kg per os for 3 days): 170-220% | % protection of BMD ([2]; first experiment, 0.1 mg/kg): ~50% | % protection of BMD ([2]; second experiment, 0.1 mg/kg): ~95% | uterine epithelia / endometrium histology [3]: full disappearance of epithelium atrophy

Oc1ccc2c(c1)OCC(c1ccccc1)=C2Cc1ccc(OCCN2CCCCC2)cc1 [Compound I, 3-phenyl-4-(4-(2-(N-piperidinyl)ethoxy)benzyl)-7-hydroxychrom-3-ene]
Ki [4]: 0.157 ± 0.028 nM | affinity for ER-β higher than raloxifene [4]: 10 fold | increase of uterine weight compared with vehicle treated control rats [5]: 17% | uterine weight versus control rats [5]: not significantly different from control rats | concentration of total growth inhibition [6]: 11 µM | CC50 ([6]; Homo sapiens, MCF7, 72 h, read-out: 50% lethal concentrations (LC50)): 20000 nM | IC50 ([6]; Homo sapiens, MCF7, 72 h): 6500 nM | Ki [7]: 0.041 ± 0.011 nM | dose at which total antagonism of E2 uterotrophic action was observed ([1]; oral): 1 to 10 mg/kg/day | EC50, inhibition of the uterotrophic action of E2 [1, 10]: 0.33 mg/kg·day | % protection of BMD ([2]; first experiment, 10 mg/kg/day): 47% | maximal lowering of cholesterol, inhibition relative to the OVX control ([8]; 10 mg/kg): 67% | ED50 ([8]; Rattus norvegicus, 672 h, 0.1-10 mg/kg day, 4 weeks, read-out: ED50, decrease of total serum cholesterol (half maximal efficacy)): 0.12 mg/kg

COc1ccc(C2=C(Cc3ccc(OCCN4CCCCC4)cc3)c3ccc(O)cc3OC2)cc1.Cl [Compound II, 3-(4-methoxy)phenyl-4-[[4-[2-(1-piperidinyl)ethoxyl]phenyl]methyl]-2H-1-benzopyran-7-ol hydrochloride]
Ki [4]: 0.099 ± 0.005 nM | affinity for ER-β higher than raloxifene [4]: 16 fold | uterine weights versus control rats [5]: not significantly different from control rats | Ki [7]: 0.017 ± 0.002 nM | dose at which total antagonism of E2 uterotrophic action was observed ([1]; oral): 0.1-1 mg/kg·day | ED50 = dose required to produce 50% reduction in estradiol-stimulated growth [1, 10]: 0.016 mg/kg·day | % protection of BMD ([2]; second experiment, 0.1 mg/kg): 60% | % protection of BMD ([2]; second experiment, 1 mg/kg·day): 119% | decrease of total serum cholesterol, inhibition ([8]; 0.1 mg/kg·day): 75% | decrease of total serum cholesterol, inhibition ([8]; 1 mg/kg·day): 81% | lowering of serum cholesterol levels, comparison in words [8]: as efficacious as E2

CS(=O)(=O)O.Oc1ccc2c(c1)OCC(c1ccccc1)=C2Cc1ccc(OCCN2CCCCC2)cc1 [Example 43, 3-phenyl-4-(4-(2-(N-piperidinyl)ethoxy)benzyl)-7-hydroxychrom-3-ene methansulfonate (1:1)]
solubility [9]: > 1000 µg/mL

COc1ccc2c(c1)OC(C)(C)[C@@H](c1ccccc1)[C@@H]2c1ccc(OCCN2CCCC2)cc1 [levormeloxifene]
uterine weights versus control rats [5]: significantly increased | maximal agonist activity, % that of E2 ([5]; at 1 mg/kg): 60-65% | inhibition of E2 stimulation of the uterus ([1]; at 1 mg/kg/day, partial antagonism): 40-45% | lowering of serum cholesterol levels, comparison in words [8]: significantly less potent | eosinophilic peroxidase activity compared to OVX uteri [3]: significantly increased | uterine epithelia / endometrium histology [3]: full disappearance of epithelium atrophy

O=C(c1ccc(OCCN2CCCCC2)cc1)c1c(-c2ccc(O)cc2)sc2cc(O)ccc12 [raloxifene]
increase of uterine weight compared with vehicle treated control rats [5]: 32% | uterine weights versus control rats [5]: not significantly different from control rats | uterine weight versus control rats [5]: not significantly different from control rats | concentration of total growth inhibition [6]: 18 µM | IC50 ([6]; Homo sapiens, MCF7, 72 h): 11000 nM | ED50 = dose required to produce 50% reduction in estradiol-stimulated growth [1, 10]: 0.39 mg/kg·day | lowering of serum cholesterol levels, comparison in words [8]: significantly less potent

CC/C(=C(\c1ccccc1)c1ccc(OCCN(C)C)cc1)c1ccccc1 [tamoxifene]
concentration of total growth inhibition [6]: 11 µM
